Assay results from patent US11718582B2, “(R)-4-(1-(1-(4-(trifluoromethyl)benzyl)pyrrolidine-2-carboxamide)cyclopropyl)-benzoic acid as EP4 receptor antagonist” (ROTTAPHARM BIOTECH S.R.L., priority 2018, dated 2023).
Structures can show the parent of a compound that is named as a salt. Where two headings read alike, the source gives them in different places.

Experiments:
[1] = target: T1, EP4 receptor (Rattus norvegicus, UniProt P43114); assay: Ex-vivo functional test: reversion of PGE2 effect on LPS-induced TNF alpha release in rat whole blood (EP4 receptor occupation); conditions: 30 mg/kg oral; for Effect per se on the release of TNF alpha (in absence of PGE2): LPS only; for Reversion of the effect of PGE2 on LPS-induced TNF alpha release: blood sampled 1 hour after treatment, **p<0.01 vs vehicle
T1 construct: by the cells present in the whole blood of the rat and expressing the EP4 receptor; from tissue; host or cells: whole blood of male Wistar rats dosed orally, ex vivo
Protocol: Ex-Vivo Functional Test: Evaluation in the Rat of EP4 Receptor Occupation by Compound 1 (30 mg/kg) Compared to CR6086 (30 mg/kg)
Method: The release of the cytokine TNF alpha induced by the endotoxin Lipopolysaccharide (from E. coli) and modulated by increasing concentrations of PGE2 was evaluated, by the cells present in the whole blood of the rat and expressing the EP4 receptor. As it is known from the literature, PGE2 modulates this release by inhibiting it, and the compounds tested, selective for the EP4 receptor, if present in the blood following their uptake, will be bound to the receptor, preventing PGE2 from inhibiting cytokine release. This reversal effect of the modulation of TNF alpha release can be considered a biomarker of the antagonism towards the EP4 receptor.
Male Wistar rats (Charles River, Italy) weighing 250-275 g were used, orally treated with a vehicle or Compound 1 (30 mg/kg) or CR6086 (30 mg/kg). Each treatment group consisted of 6 animals.
Measurement of the Ex-Vivo Effects in Whole Blood of the Rat:
The effects of the receptor occupancy by the compounds under examination was evaluated one hour after their administration, and compared to those measured in the presence of the vehicle alone. After gaseous anaesthesia with isofluorane, blood was taken from the abdominal aorta and transferred to tubes containing heparin (0.1-0.2 U/ml). Then 0.4 ml blood aliquots were taken and dispensed into a series of test tubes which were pre-heated at 37° C. for 10 minutes. LPS (0.1 μg/ml final concentration) were added to the samples, which represented the test control, or an LPS mix (0.1 μg/ml final concentration)+PGE2 at various concentrations. In the samples representing the basal release of cytokine, LPS was replaced by sterile phosphate buffer (PBS). The samples were incubated for 4 hours at 37° C., then 40 μl of 10 mM EDTA were added and the samples were transferred into ice. The samples were then centrifuged at 1500×g for 10 minutes at 4° C. and the plasma thus obtained was removed and stored at −80° C. until the time of the dosing. The content of TNF alpha in the plasma was measured by means of a specific commercial kit.
The final concentrations of TNF alpha were calculated for each animal treated and for each experimental condition, from which the percentage of inhibition due to increasing concentrations of PGE2 were obtained, compared to the sample containing only LPS. The cytokine release baseline values resulted to be below the ELISA assay sensitivity limit, indicated by the manufacturer. Therefore, the IC50 value was calculated from this inhibition curve. […] The mean TNF alpha values of the samples in presence of only LPS, in the different treatment groups were analysed to verify the possible intrinsic effect of the compound under examination. […]

[2] = target: T2, human EP4 receptor (Homo sapiens, UniProt P35408); assay: [3H]-PGE2 binding to recombinant human EP4 receptor (HEK293 membranes); design: expressed in transfected cells; conditions: for IC50: recombinant human EP4 receptor, HEK293 membranes, radioligand 1 nM, 90 min 25° C., read-out: [3H]-PGE2 binding IC50 (nM ± SD)
Protocol: Studies of Binding Towards the Human EP4 Receptor.
The experiments were performed in accordance with the procedure described by Abramovitz et al (Biochemica and Biophysica Acta; 1483, 285-293, 2000).
The cell membranes bearing the human EP4 receptor, stably expressed by HEK293 cells (Human Embryonic Kidney 293) were prepared as described below. After eliminating the culture medium (DMEM, supplemented with Glutamax I and containing 10% of foetal bovine serum and blasticidin 10 μg/ml) a wash of the cell monolayer was performed with 10 ml of hypotonic lysis buffer (TRIS-CI 5 mM+EDTA 5 mM-pH 7.4). The cells, which grew in adherence in the above mentioned medium at 37° C. with 5% CO2, were then detached from the growth container (150 cm^2 flask) and lysed by mechanical action, adding 20 ml of fresh lysis buffer. The lysates were stirred for 30 seconds and centrifuged at 40000×g for 22 minutes at 4° C. The final pellet was stored at −80° C. until use. At the time of the binding experiment, the membranes were thawed and re-suspended in analysis buffer (10 mM MES-KOH pH6, containing 10 mM MgCl2 and 1 mM CaCl2)) to obtain a concentration of 1 mg of proteins/ml. The protein content of the membrane suspension was determined using bovine serum albumin as a standard.
In the experiments, 10 μl aliquots of membranes were incubated with the radioligand [^3H]-Prostaglandin E2 (PGE2) at the concentration of 1 nM, in absence or in presence of various concentrations of the compounds to be tested. The non-specific binding was determined in the presence of PGE2 1 μM. The incubation, in a final volume of 0.1 ml, performed in 96 deepwell microplates, proceeded for 90 minutes at 25° C. The separation of the free radioligand from that bound to the receptor occurred by rapid filtration under vacuum, using Unifilter GFB glass fibre filtering microplates, pre-wetted with 0.3% of polyethylene-imine dissolved in the analysis buffer, followed by 3 washes with cold buffer (50 mM HEPES, NaCl 500 mM, BSA 0.1%, pH 7.4). The filtration discs were then dried at 30° C., to which 0.05 ml of Microscint-20 scintillation liquid (Perkin Elmer) was added to each and at the end the radioactivity present was measured after at least one hour of stabilization. The compound/radioligand competition curves were analysed using the “Non linear curve fitting” program (Graph Pad, version 7 for Windows), which allowed calculating the IC50 value (concentration capable of inhibiting the 50% of the radioligand binding to the receptor under examination) for each compound evaluated.

[3] = target: T2, human EP4 receptor; assay: Determination of cAMP in CHO cells transfected with human EP4 receptor (functional test); assay type: cell-based; design: expressed in transfected cells; host or cells: CHO cells; conditions: for Agonist effect (inactive up to): cAMP production in absence of PGE2, vs 1 μM PGE2 control; for Kb: cAMP, CHO-hEP4, 30 nM PGE2, modified Cheng Prusoff; for IC50: inhibition of cAMP response to 30 nM PGE2, read-out: Antagonist effect: IC50
Protocol: Determination of cAMP in CHO Cells Transfected with Human EP4 Receptor (Functional Test)
Method: Evaluation of the agonist and antagonist activity of Compound 1 in the human EP4 receptor expressed in CHO cells transfected with the human EP4 receptor, determined by measuring its effects on cAMP production in the absence and in the presence of the endogenous agonist PGE2.
The CHO cells were suspended in HBSS buffer (Invitrogen) with the addition of HEPES 20 mM (pH 7.4) and IBMX […], then distributed in microplates at a density of 20000 cells per well and incubated for 10 minutes at room temperature in the absence (control) or in presence of the compound under examination. As a reference control of the agonist activity, 1 μM of PGE2 was added to independent dosage wells. In the case of the evaluation of the antagonistic effect, the reference agonist PGE2 was instead added to a final concentration of 30 nM. After 10 minutes of incubation at room temperature, the cells were lysed and the fluorescence acceptor (cAMP labelled D2) and the fluorescence donor (anti-cAMP antibody labelled with europium cryptate) were added. After 60 minutes at room temperature, the fluorescence transfer was measured at a wavelength of 337 nm in excitation and at 620 and 665 nm in emission using a microplate reader (Envison, Perkin Elmer). The cAMP concentration was determined by dividing the measured signal at 665 nm by that measured at 620 nm (ratio). The results were expressed, in the case of the evaluation of the agonist effect, as a percentage of the control response at 1 μM of PGE2 while, in the case of the evaluation of the antagonist effect, as a percentage of inhibition of the response of the control agonist at 30 nM PGE2. For the determination of the antagonist activity, the apparent dissociation constant (Kb) was calculated by applying the modified Cheng Prusoff equation (Kb=IC50/(1+A/EC50A)); where A=concentration of the reference agonist PGE2, and EC50A=EC50 value of the reference agonist.

[4] = test system: collagen-induced arthritis in mice; assay: Collagen arthritis in the mouse (CIA); assay type: in vivo
[5] = Pharmacokinetics in Wistar rats; assay type: in vivo; conditions: for Cmax: rat, plasma, oral
[6] = read-out: Antagonist effect: Kb
[7] = read-out: Kb (apparent dissociation constant), antagonist

T1 sequence (P43114 whole entry): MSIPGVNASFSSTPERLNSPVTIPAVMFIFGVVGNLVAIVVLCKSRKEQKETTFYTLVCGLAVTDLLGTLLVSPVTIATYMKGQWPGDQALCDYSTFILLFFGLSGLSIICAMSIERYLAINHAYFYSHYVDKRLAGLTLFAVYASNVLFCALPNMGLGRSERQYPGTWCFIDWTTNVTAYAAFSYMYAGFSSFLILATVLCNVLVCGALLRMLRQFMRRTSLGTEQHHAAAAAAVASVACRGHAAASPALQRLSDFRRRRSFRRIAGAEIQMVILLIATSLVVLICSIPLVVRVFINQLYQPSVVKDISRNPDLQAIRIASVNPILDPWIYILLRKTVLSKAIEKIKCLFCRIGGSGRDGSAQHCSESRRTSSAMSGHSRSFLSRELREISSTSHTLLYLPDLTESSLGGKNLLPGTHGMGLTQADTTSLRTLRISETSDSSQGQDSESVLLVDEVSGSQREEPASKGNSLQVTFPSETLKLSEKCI
T2 sequence (P35408 whole entry): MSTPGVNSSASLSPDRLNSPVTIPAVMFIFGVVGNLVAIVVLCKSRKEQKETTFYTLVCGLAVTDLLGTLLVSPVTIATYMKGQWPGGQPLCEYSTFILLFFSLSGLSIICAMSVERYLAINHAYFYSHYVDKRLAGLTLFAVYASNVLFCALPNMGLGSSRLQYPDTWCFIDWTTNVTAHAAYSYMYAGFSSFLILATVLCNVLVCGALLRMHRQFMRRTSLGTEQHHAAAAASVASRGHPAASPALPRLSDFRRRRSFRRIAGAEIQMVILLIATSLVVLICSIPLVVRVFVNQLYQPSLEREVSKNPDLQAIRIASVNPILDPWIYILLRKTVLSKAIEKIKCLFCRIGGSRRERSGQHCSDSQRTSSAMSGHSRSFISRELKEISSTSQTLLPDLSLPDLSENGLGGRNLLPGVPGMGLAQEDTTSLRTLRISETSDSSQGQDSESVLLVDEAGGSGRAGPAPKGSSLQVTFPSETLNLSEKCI

Structure (SMILES)	Effect per se on the release of TNF alpha (in absence of PGE2) [1]	Reversion of the effect of PGE2 on LPS-induced TNF alpha release [1]	IC50 [2] [nM]	Agonist effect (inactive up to) [3]	Kb [3, 6] [nM]	Kb [3, 7] [nM]	IC50 [3] [nM]	Progression of collagen-induced arthritis (oedema, clinical and histopathological score) ([4]; 45 and 90 mg/kg oral, 16 days, DBA/1 mice)	Reversion of clinical symptoms (swelling of paws) compared with CR6086 30 mg/kg ([4]; compound 1 at 45 mg/kg vs CR6086 30 mg/kg in a similar study)	Oral bioavailability [5]	AUC (0-24 h) ([5]; 5 mg/kg) [ngxh/ml]	Cmax ([5]; 5 mg/kg, converted from 4270 ng/ml, read-out: CMAX as plasma concentration) [µM]	Cmax ([5]; 5 mg/kg, read-out: CMAX) [ng/mL]	times less active than Compound 1 in inhibiting the binding of the PGE2 ligand to the human EP4 receptor ([2]; relative to Compound 1)
O=C(O)c1ccc(C2(NC(=O)[C@H]3CC4(CCN3Cc3ccc(C(F)(F)F)cc3)CC4)CC2)cc1 [CR6086, 4-(1-(6-(4-(trifluoromethyl)benzyl)-6-azaspiro [2.5]octan-5-carboxamide)cyclopropyl) benzoic acid, reference compound]	no significant effects per se	statistically significant reversion of the effect of PGE2	48 ± 3	> 10^−6 M	7.8	7.8	82	–	–	–	–	–	–	–
O=C(O)c1ccc(C2(NC(=O)[C@H]3CCCN3Cc3ccc(C(F)(F)F)cc3)CC2)cc1 [Compound 1]	no significant effects per se	statistically significant reversion of the effect of PGE2	45 ± 0.4	> 10^−6 M	15	15	160	significantly and in a dose-dependent manner reduced the evolution of the pathology	greater effect on the reversion of clinical symptoms	excellent oral bioavailability	5460	~9	4270	–
O=C(O)c1ccc(C2(NC(=O)[C@@H]3CCCN3Cc3ccc(C(F)(F)F)cc3)CC2)cc1 [Compound 2, sodium salt of (S)-4-(1-(1-(4-(trifluoromethyl)benzyl)pyrrolidin-2-carboxamide)cyclopropyl) benzoic acid]	–	–	2210 ± 940	–	–	–	–	–	–	–	–	–	–	about 50 times
